Experiments:
Type in all cases: cell-based
RAR alpha = target: T1, RAR alpha (Homo sapiens, UniProt P10276); test: RAR alpha agonist reporter cell assay (Gal4 DBD receptor hybrid, luciferase); conditions: for Fold Activation: 23 hours, vs DMSO; for agonist activity towards RAR alpha (in words): summary of Table 1
T1 sequence (P10276 183-417 limits assumed): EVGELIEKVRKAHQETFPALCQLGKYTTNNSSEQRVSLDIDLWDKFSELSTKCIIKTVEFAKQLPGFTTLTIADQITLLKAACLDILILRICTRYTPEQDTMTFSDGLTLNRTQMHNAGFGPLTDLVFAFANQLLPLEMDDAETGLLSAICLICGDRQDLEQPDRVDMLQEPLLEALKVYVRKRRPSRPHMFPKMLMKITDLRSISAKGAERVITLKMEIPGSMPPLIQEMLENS
Protocol: (§1) Reporter Cells (Indigo Biosciences, catalog #IB02201, IB02101, IB00821) were used in the assays. The reporter cells expressed a receptor hybrid in which the native N-terminal DNA binding domain (DBD) had been replaced with that of the yeast Gal4 DBD. The reporter gene, firefly luciferase, is functionally linked to the Gal4 upstream activation sequence (UAS). Receptor assays were performed as follows, Steps 1 to 3.
(§2) Step 1: A suspension of Reporter Cells was prepared in Cell Recovery Medium (CRM: containing charcoal-stripped FBS) and 100 μL of the Reporter Cell suspension was dispensed into each of the wells of a white 96-well assay plate. Step 2: Test and reference compound master stocks were prepared as solutions at 1,000× concentration in DMSO relative to the final treatment concentration. This intermediate stock was subsequently diluted directly into INDIGO Biosciences's Compound Screening Medium (CSM; containing charcoal-stripped FBS) to generate ‘2×-concentration’ treatment media. 100 μL of each prepared treatment medium was dispensed into duplicate assay wells pre-dispensed with a 100 μL suspension of Reporter Cells, thereby achieving the desired final treatment concentrations. The concentration of residual DMSO in all assay wells was 0.1% for the test and reference compounds. Assay plates were incubated at 37° C., 5% CO2 and ˜70% humidity for 23 hours. DMSO control was used to determine background activity. Retinoic acid was used with its EC100 concentration to show 100% activity of each receptor. Retinol served as positive control.
(§3) Step 3: Following the incubation period, treatment media were discarded and 100 μL/well of Luciferase Detection Reagent was added per well to determine receptor activity in terms of relative luminescence units (RLUs). Data processing: Fold activation: [Ave RLU Test Cmpd/Ave RLU DMSO].

RAR beta = target: T2, RAR beta (Homo sapiens, UniProt P10826); test: RAR beta agonist reporter cell assay (Gal4 DBD receptor hybrid, luciferase); conditions: for Fold Activation: 23 hours, vs DMSO; for agonist activity towards RAR beta (in words): summary of Table 1
T2 sequence (P10826 183-417 limits assumed): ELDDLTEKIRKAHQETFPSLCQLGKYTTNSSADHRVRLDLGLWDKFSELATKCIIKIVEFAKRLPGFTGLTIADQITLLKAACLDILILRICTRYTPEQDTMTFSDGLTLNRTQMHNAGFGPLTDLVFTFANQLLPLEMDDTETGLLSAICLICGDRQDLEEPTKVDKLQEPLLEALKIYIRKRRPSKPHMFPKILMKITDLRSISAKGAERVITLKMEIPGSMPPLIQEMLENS
Protocol: as §1, §2, §3

RAR gamma = RAR gamma agonist reporter cell assay (Gal4 DBD receptor hybrid, luciferase); conditions: for Fold Activation: 23 hours, vs DMSO; for agonist activity towards RAR gamma (in words): summary of Table 1
Protocol: Reporter Cells (Indigo Biosciences, catalog #IB02201, IB02101, IB00821) were used in the assays. The reporter cells expressed a receptor hybrid in which the native N-terminal DNA binding domain (DBD) had been replaced with that of the yeast Gal4 DBD. The reporter gene, firefly luciferase, is functionally linked to the Gal4 upstream activation sequence (UAS). Receptor assays were performed as follows, Steps 1 to 3. Step 1: A suspension of Reporter Cells was prepared in Cell Recovery Medium (CRM: containing charcoal-stripped FBS) and 100 μL of the Reporter Cell suspension was dispensed into each of the wells of a white 96-well assay plate. Step 2: Test and reference compound master stocks were prepared as solutions at 1,000× concentration in DMSO relative to the final treatment concentration. […] The concentration of residual DMSO in all assay wells was 0.1% for the test and reference compounds. Assay plates were incubated at 37° C., 5% CO2 and ˜70% humidity for 23 hours. DMSO control was used to determine background activity. […] Retinol served as positive control. Step 3: Following the incubation period, treatment media were discarded and 100 μL/well of Luciferase Detection Reagent was added per well to determine receptor activity in terms of relative luminescence units (RLUs). Data processing: Fold activation: [Ave RLU Test Cmpd/Ave RLU DMSO].

| Fold Activation (RAR alpha; RAR alpha, 0.01 μM) | Fold Activation (RAR alpha; RAR alpha, 0.1 μM) | Fold Activation (RAR alpha; RAR alpha, 1 μM) | agonist activity towards RAR alpha (in words) (RAR alpha) | Fold Activation (RAR beta; RAR beta, 0.01 μM) | Fold Activation (RAR beta; RAR beta, 0.1 μM) | Fold Activation (RAR beta; RAR beta, 1 μM) | agonist activity towards RAR beta (in words) (RAR beta) | activity compared with retinoic acid (RAR alpha; RAR alpha) | activity compared with retinoic acid (RAR beta; RAR beta) | SMILES | Fold Activation (RAR gamma; RAR gamma, 0.01 μM) | Fold Activation (RAR gamma; RAR gamma, 0.1 μM) | Fold Activation (RAR gamma; RAR gamma, 1 μM) | agonist activity towards RAR gamma (in words) (RAR gamma) | activity compared with retinol (RAR alpha; RAR alpha, all tested concentrations) | activity compared with retinol (RAR beta; RAR beta, all tested concentrations) | activity compared with retinoic acid (RAR gamma; RAR gamma) | activity compared with retinol (RAR gamma; RAR gamma, all tested concentrations) |
| --- | --- | --- | --- | --- | --- | --- | --- | --- | --- | --- | --- | --- | --- | --- | --- | --- | --- | --- |
| 1.27 fold | 9.14 fold | 552 fold | exhibited agonist activity | 0.882 fold | 6.33 fold | 149 fold | exhibited agonist activity | – | – | CC1=C(/C=C/C(C)=C/C=C/C(C)=C/C(=O)Oc2c(C)c(C)c3c(c2C)CCC(C)(CCCC(C)CCCC(C)CCCC(C)C)O3)C(C)(C)CCC1 (racemic) [(±)α-tocopheryl retinoate] | 1.79 fold | 23.8 fold | 365 fold | exhibited agonist activity | – | – | – | – |
| 1,573 fold | 2,768 fold | 3,414 fold | exhibited agonist activity | 232 fold | 287 fold | 331 fold | exhibited agonist activity | comparable activity to retinoic acid | comparable activity to retinoic acid | CC1=C(/C=C/C(C)=C/C=C/C(C)=C/C(=O)Oc2ccc(O)c(C(C)(C)C)c2)C(C)(C)CCC1 [3-tert-Butyl-4-hydroxyphenyl retinoate, 3-tert-butyl-4-hydroxyphenyl retinoate] | 541 fold | 1,010 fold | 701 fold | exhibited agonist activity | higher activity than retinol at all tested concentrations | higher activity than retinol at all tested concentrations | comparable activity to retinoic acid | higher activity than retinol at all tested concentrations |
| 0.620 fold | 5.25 fold | 251 fold | exhibited agonist activity | 1.57 fold | 3.96 fold | 53.4 fold | exhibited agonist activity | – | – | CC1=C(/C=C/C(C)=C/C=C/C(C)=C/C(=O)Oc2cc(C)c3c(c2)CC[C@@](C)(CCC[C@H](C)CCC[C@H](C)CCCC(C)C)O3)C(C)(C)CCC1 [(+)δ-Tocopheroyl retinoate, (+)δ-tocopheroyl retinoate] | 1.10 fold | 8.45 fold | 315 fold | exhibited agonist activity | – | – | – | – |
| – | – | – | – | – | – | – | – | – | – | CC1=C(/C=C/C(C)=C/C=C/C(C)=C/C(=O)O)C(C)(C)CCC1 [Retinoic acid, reference compound] | – | 706 fold | – | – | – | – | – | – |
| 1.77 fold | 6.35 fold | 518 fold | – | 1.63 fold | 4.91 fold | 127 fold | – | – | – | CC1=C(/C=C/C(C)=C/C=C/C(C)=C/CO)C(C)(C)CCC1 [Retinol, reference compound] | 2.28 fold | 18.5 fold | 368 fold | – | – | – | – | – |

From patent US20230095276A1, “ESTERS OF A RETINOID AND A TOCOPHEROL OR TERT-BUTYLHYDROQUINONE AND PREPARATIONS THEREOF” (Conagen Inc., priority 2021, published 2023)
